Consider five compounds from US20110065753A1, “METHODS OF TREATING POXVIRAL INFECTIONS” (priority 2009, published 2011).

A short description of series [1]: Iminosugar safety study, BALB/c mice. Particulars: for weight loss compared to vehicle only control: oral suspension twice a day for 7 days at 100 and 10 mg/kg.
Series [2] in a line: Iminosugar safety study, C57/B1/6 mice. Particulars: oral suspension twice a day for 7 days at 100 and 10 mg/kg.
For a further series, the system named is Vaccinia NYCBOH strain. The format is cell-based. Particulars: read-out: IC50, inhibition of infectivity of Vaccinia virus.
For series [3] the following is noted: mouse, in vivo.
Another series deals with Cowpox Brighton. The format is in vivo, BALB/C mice. Particulars: n=10.

Several values for one entry are separate records, joined by “and”; a condition that tells them apart may be missing. Equal entries are not always repeated.

Consider `CCCCN1C[C@H](O)[C@@H](O)[C@H](O)[C@H]1CO` [UV-1, N-Butyl deoxynojirimycin], for which the “weight loss compared to vehicle only control” value in series [1] and in series [2] was “did not show any significant signs of weight loss” in each case. Also, the IC50 with Vaccinia NYCBOH strain worked out at 90 µM.
Regarding `CCCCCCCCCN1C[C@H](O)[C@@H](O)[C@H](O)[C@H]1CO` [UV-2, N-Nonyl deoxynojirimycin], the IC50 in the series with Vaccinia NYCBOH strain is 21 µM.
On to `CCCOCCCCCCN1C[C@H](O)[C@@H](O)[C@H](O)[C@H]1CO` [UV-3, N-(7-Oxadecyl)deoxynojirimycin], for which the IC50 in the series with Vaccinia NYCBOH strain turned out to be 7 µM.
As for `COCCCCCCCCCN1C[C@H](O)[C@@H](O)[C@H](O)[C@H]1CO` [UV-4, N-(9-Methoxynonyl) deoxynojirimycin], in series [3], the “weight loss or adverse effects” value was “no weight loss or adverse effects observed”. Further, the “weight loss compared to vehicle only control” value in series [1] and in series [2] was “did not show any significant signs of weight loss” in each case. Further, the IC50 in the series with Vaccinia NYCBOH strain was found to be 59 µM. For the same compound, in the series on Cowpox Brighton, the “percentage of surviving mice” value was 100% and 70%.
On to `[N-]=[N+]=Nc1ccc(NCCCCCCN2C[C@H](O)[C@@H](O)[C@H](O)[C@H]2CO)c([N+](=O)[O-])c1` [UV-5, N—(N-{4′-azido-2′-nitrophenyl}-6-aminohexyl)deoxynojirimycin], for which, in series [1] (highest concentration (100 mg/kg twice a day, 7 days), symptoms ceased when treatment was done), the “general health, clinical signs” value is “signs of diarrhea, red urine, and a ruffled appearance”. In addition, the “weight loss compared to vehicle only control” value in series [1] and in series [2] was “did not show any significant signs of weight loss” in each case. The IC50 in the series on Vaccinia NYCBOH strain came to 3 µM.

What is called IC50 is the concentration that inhibits the measured activity by half.
